Results from patent publication US20170050957A1, “4-AMINO-6-(HETEROCYCLIC)PICOLINATES AND 6-AMINO-2-(HETEROCYCLIC)PYRIMIDINE-4-CARBOXYLATES AND THEIR USE AS HERBICIDES” (Dow AgroSciences LLC, priority 2013, published 2017).
Like-named read-outs stand apart in the source and are kept apart here. Each block holds one compound with its values, some of them ahead of it.

Tests used:
[1] = tested on: Key Broadleaf Weed and Crop Species; experiment: Post-emergent Test II herbicidal activity (Table 15); type: in vivo; conditions: post-emergence, 336 h, 14 d; for pest or weed control at 35 g/ha: 35 g ai/ha; for pest or weed control at 70 g/ha: 70 g ai/ha; for pest or weed control at 140 g/ha: 140 g ai/ha
Procedure, shortened: (§1)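 Greenhouse-grown seedlings at first/second true leaf receive a track spray at 187 L/ha, using a highest rate plus two-fold serial dilutions down to 1/16×. Watering is by subirrigation to avoid wash-off. Percent injury (0-100) is judged by eye at 14 d against untreated plants.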

[2] = tested on: Key Grass and Sedge Weeds as well as Grass Crops; experiment: Post-emergent Test II herbicidal activity (Table 16); type: in vivo; conditions: post-emergence, 336 h; for pest or weed control at 35 g/ha: 35 g ai/ha; for pest or weed control at 70 g/ha: 70 g ai/ha; for pest or weed control at 140 g/ha: 140 g ai/ha
Procedure, shortened: as §1

[3] = Abutilon theophrasti, velvetleaf (Abutilon theophrasti), read-out: Visual Growth Reduction (%) 14 Days After Application, ABUTH
[4] = Amaranthus retroflexus, redroot pigweed (Amaranthus retroflexus), read-out: Visual Growth Reduction (%) 14 Days After Application, AMARE
[5] = Brassica napus, oilseed rape, canola (Brassica napus), read-out: Visual Growth Reduction (%) 14 Days After Application, BRSNN
[6] = Chenopodium album, lambsquarters (Chenopodium album), read-out: Visual Growth Reduction (%) 14 Days After Application, CHEAL
[7] = Euphorbia heterophylla, wild poinsettia (Euphorbia heterophylla), read-out: Visual Growth Reduction (%) 14 Days After Application, EPHHL
[8] = Helianthus annuus, sunflower (Helianthus annuus), read-out: Visual Growth Reduction (%) 14 Days After Application, HELAN
[9] = Cyperus esculentus, yellow nutsedge (Cyperus esculentus), 14 days after application, read-out: Visual Growth Reduction (%) 14 Days After Application CYPES
[10] = Echinochloa crus-galli, barnyardgrass (Echinochloa crus-galli), 14 days after application, read-out: Visual Growth Reduction (%) 14 Days After Application ECHCG
[11] = Oryza sativa, rice (Oryza sativa), 14 days after application, read-out: Visual Growth Reduction (%) 14 Days After Application ORYSA
[12] = Setaria faberi, giant foxtail (Setaria faberi), 14 days after application, read-out: Visual Growth Reduction (%) 14 Days After Application SETFA
[13] = Triticum aestivum, wheat, spring (Triticum aestivum), 14 days after application, read-out: Visual Growth Reduction (%) 14 Days After Application TRZAS
[14] = Zea mays, maize, corn (Zea mays), 14 days after application, read-out: Visual Growth Reduction (%) 14 Days After Application ZEAMX
[15] = Cyperus esculentus, yellow nutsedge (Cyperus esculentus), 14 d, read-out: Visual Growth Reduction (%) 14 Days After Application, CYPES
[16] = Echinochloa crus-galli, barnyardgrass (Echinochloa crus-galli), 14 d, read-out: Visual Growth Reduction (%) 14 Days After Application, ECHCG
[17] = Oryza sativa, rice (Oryza sativa), 14 d, read-out: Visual Growth Reduction (%) 14 Days After Application, ORYSA
[18] = Setaria faberi, giant foxtail (Setaria faberi), 14 d, read-out: Visual Growth Reduction (%) 14 Days After Application, SETFA
[19] = Triticum aestivum, wheat, spring (Triticum aestivum), 14 d, read-out: Visual Growth Reduction (%) 14 Days After Application, TRZAS
[20] = Zea mays, maize, corn (Zea mays), 14 d, read-out: Visual Growth Reduction (%) 14 Days After Application, ZEAMX

- melting point: 188 to 190 °C
Compound: COC(=O)c1nc(-c2ccc3[nH]ncc3c2)c(F)c(N)c1Cl [Compound 4.01]
- pest or weed control at 35 g/ha [1, 3]: 0 to 29%
- pest or weed control at 70 g/ha [1, 3]: 0 to 29%
- pest or weed control at 140 g/ha [1, 3]: 0 to 29%
- pest or weed control at 35 g/ha [1, 4]: 0 to 29%
- pest or weed control at 70 g/ha [1, 4]: 45 to 59%
- pest or weed control at 140 g/ha [1, 4]: 60 to 74%
- pest or weed control at 35 g/ha [1, 5]: 0 to 29%
- pest or weed control at 70 g/ha [1, 5]: 0 to 29%
- pest or weed control at 140 g/ha [1, 5]: 0 to 29%
- pest or weed control at 35 g/ha [1, 6]: 0 to 29%
- pest or weed control at 70 g/ha [1, 6]: 60 to 74%
- pest or weed control at 140 g/ha [1, 6]: 60 to 74%
- pest or weed control at 35 g/ha [1, 7]: 0 to 29%
- pest or weed control at 70 g/ha [1, 7]: 0 to 29%
- pest or weed control at 140 g/ha [1, 7]: 0 to 29%
- pest or weed control at 35 g/ha [1, 8]: 0 to 29%
- pest or weed control at 70 g/ha [1, 8]: 0 to 29%
- pest or weed control at 140 g/ha [1, 8]: 0 to 29%
- pest or weed control at 35 g/ha [2, 9]: 0 to 29%
- pest or weed control at 70 g/ha [2, 9]: 0 to 29%
- pest or weed control at 140 g/ha [2, 9]: 0 to 29%
- pest or weed control at 35 g/ha [2, 10]: 0 to 29%
- pest or weed control at 70 g/ha [2, 10]: 0 to 29%
- pest or weed control at 140 g/ha [2, 10]: 0 to 29%
- pest or weed control at 35 g/ha [2, 11]: 0 to 29%
- pest or weed control at 70 g/ha [2, 11]: 0 to 29%
- pest or weed control at 140 g/ha [2, 11]: 0 to 29%
- pest or weed control at 35 g/ha [2, 12]: 0 to 29%
- pest or weed control at 70 g/ha [2, 12]: 0 to 29%
- pest or weed control at 140 g/ha [2, 12]: 0 to 29%
- pest or weed control at 35 g/ha [2, 13]: 0 to 29%
- pest or weed control at 70 g/ha [2, 13]: 0 to 29%
- pest or weed control at 140 g/ha [2, 13]: 0 to 29%
- pest or weed control at 35 g/ha [2, 14]: 0 to 29%
- pest or weed control at 70 g/ha [2, 14]: 0 to 29%
- pest or weed control at 140 g/ha [2, 14]: 0 to 29%

- melting point: 233 to 236 °C
Compound: COC(=O)c1nc(-c2cccc3[nH]ccc23)c(F)c(N)c1Cl [Compound 1.40]
- pest or weed control at 35 g/ha [1, 3]: 0 to 29%
- pest or weed control at 70 g/ha [1, 3]: 0 to 29%
- pest or weed control at 140 g/ha [1, 3]: 0 to 29%
- pest or weed control at 70 g/ha [1, 4]: 95 to 100%
- pest or weed control at 35 g/ha [1, 5]: 0 to 29%
- pest or weed control at 70 g/ha [1, 5]: 0 to 29%
- pest or weed control at 140 g/ha [1, 5]: 0 to 29%
- pest or weed control at 35 g/ha [1, 6]: 0 to 29%
- pest or weed control at 70 g/ha [1, 6]: 0 to 29%
- pest or weed control at 140 g/ha [1, 6]: 0 to 29%
- pest or weed control at 35 g/ha [1, 7]: 0 to 29%
- pest or weed control at 70 g/ha [1, 7]: 0 to 29%
- pest or weed control at 140 g/ha [1, 7]: 0 to 29%
- pest or weed control at 35 g/ha [1, 8]: 0 to 29%
- pest or weed control at 70 g/ha [1, 8]: 30 to 44%
- pest or weed control at 140 g/ha [1, 8]: 45 to 59%
- pest or weed control at 35 g/ha [2, 15]: 0 to 29%
- pest or weed control at 70 g/ha [2, 15]: 0 to 29%
- pest or weed control at 140 g/ha [2, 15]: 0 to 29%
- pest or weed control at 35 g/ha [2, 16]: 0 to 29%
- pest or weed control at 70 g/ha [2, 16]: 0 to 29%
- pest or weed control at 140 g/ha [2, 16]: 0 to 29%
- pest or weed control at 35 g/ha [2, 17]: 0 to 29%
- pest or weed control at 70 g/ha [2, 17]: 0 to 29%
- pest or weed control at 140 g/ha [2, 17]: 0 to 29%
- pest or weed control at 35 g/ha [2, 18]: 0 to 29%
- pest or weed control at 70 g/ha [2, 18]: 0 to 29%
- pest or weed control at 140 g/ha [2, 18]: 0 to 29%
- pest or weed control at 35 g/ha [2, 19]: 0 to 29%
- pest or weed control at 70 g/ha [2, 19]: 0 to 29%
- pest or weed control at 140 g/ha [2, 19]: 0 to 29%
- pest or weed control at 35 g/ha [2, 20]: 0 to 29%
- pest or weed control at 70 g/ha [2, 20]: 0 to 29%
- pest or weed control at 140 g/ha [2, 20]: 0 to 29%
